Experimental data published in ChEMBL document CHEMBL1201862, “PubChem BioAssay data set” (2004).
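Method: 48-hour compound exposure of cells in 96-well plates, five concentrations, linear interpolation of endpoints. At the GI50, growth is halved.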 Activity calls are given as the source filed them. Rule as the data show it: active = GI50 up to about 1.1 µM and inactive = higher.

Tests used:
Experiment in all cases: growth of human tumour cells (NCI), 48 h
[1] = system: EKVX
[2] = system: HCC 2998
[3] = system: HOP-62
[4] = system: HT-29
[5] = system: Hs-578T
[6] = system: IGROV-1
[7] = system: MOLT-4
[8] = system: Malme-3M
[9] = system: NCI-H522
[10] = system: NCI/ADR-RES
[11] = system: OVCAR-3
[12] = system: OVCAR-4
[13] = system: RXF 393
[14] = system: SF-268
[15] = system: SF-295
[16] = system: SK-MEL-5
[17] = system: SNB-19
[18] = system: T47D
[19] = system: U-251
[20] = system: HOP-92

| Structure (SMILES) | GI50 [1] | GI50 [2] | GI50 [3] | GI50 [4] | GI50 [5] | GI50 [6] | GI50 [7] | GI50 [8] | GI50 [9] | GI50 [10] | GI50 [11] | GI50 [12] | GI50 [13] | GI50 [14] | GI50 [15] | GI50 [16] | GI50 [17] | GI50 [18] | GI50 [19] | GI50 [20] |
| --- | --- | --- | --- | --- | --- | --- | --- | --- | --- | --- | --- | --- | --- | --- | --- | --- | --- | --- | --- | --- |
| [O-][S+](c1ccc(Cl)cc1)c1ccccc1C1=NCCN1 (stereo not given) | > 100 µM (inactive) | > 100 µM (inactive) | > 100 µM (inactive) | > 100 µM (inactive) | > 100 µM (inactive) | > 100 µM (inactive) | > 100 µM (inactive) | > 100 µM (inactive) | > 100 µM (inactive) | > 100 µM (inactive) | > 100 µM (inactive) | > 100 µM (inactive) | > 100 µM (inactive) | > 100 µM (inactive) | > 100 µM (inactive) | > 100 µM (inactive) | > 100 µM (inactive) | > 100 µM (inactive) | > 100 µM (inactive) | – |
| CCN(CC)C1Oc2cc3c(cc2C(c2cccc(OC)c2O)C1C)OCO3 (stereo not given) | 10.6 µM (inactive) | 12.4 µM (inactive) | 5.28 µM (inactive) | 4.16 µM (inactive) | 2.51 µM (inactive) | 8.04 µM (inactive) | 3.68 µM (inactive) | 3.94 µM (inactive) | 2.41 µM (inactive) | 4.62 µM (inactive) | 1.94 µM (inactive) | 7.14 µM (inactive) | 4.5 µM (inactive) | 6.62 µM (inactive) | 3.08 µM (inactive) | 2.97 µM (inactive) | 3.76 µM (inactive) | 14.5 µM (inactive) | 3.69 µM (inactive) | – |
| c1ccc(CCNc2ccccn2)nc1 | > 100 µM (inactive) | > 100 µM (inactive) | > 100 µM (inactive) | > 100 µM (inactive) | > 100 µM (inactive) | > 100 µM (inactive) | – | > 100 µM (inactive) | > 100 µM (inactive) | > 100 µM (inactive) | > 100 µM (inactive) | > 100 µM (inactive) | > 100 µM (inactive) | > 100 µM (inactive) | > 100 µM (inactive) | > 100 µM (inactive) | > 100 µM (inactive) | – | > 100 µM (inactive) | > 100 µM (inactive) |
| COc1ccc(-[n+]2nc(S(=O)(=O)O)c(/C=C/c3ccc(N(C)C)cc3)cc2C#N)cc1 | > 100 µM (inactive) | > 100 µM (inactive) | > 100 µM (inactive) | > 100 µM (inactive) | > 100 µM (inactive) | > 100 µM (inactive) | > 100 µM (inactive) | – | > 100 µM (inactive) | > 100 µM (inactive) | > 100 µM (inactive) | > 100 µM (inactive) | – | > 100 µM (inactive) | > 100 µM (inactive) | > 100 µM (inactive) | > 100 µM (inactive) | > 100 µM (inactive) | > 100 µM (inactive) | > 100 µM (inactive) |
| CCOC(=O)c1ccc(C(=O)C(C(C)=O)C(=O)OC(C)(C)C)n1C (stereo not given) | > 100 µM (inactive) | > 100 µM (inactive) | > 100 µM (inactive) | > 100 µM (inactive) | > 100 µM (inactive) | > 100 µM (inactive) | 67.5 µM (inactive) | > 100 µM (inactive) | > 100 µM (inactive) | > 100 µM (inactive) | > 100 µM (inactive) | > 100 µM (inactive) | > 100 µM (inactive) | > 100 µM (inactive) | > 100 µM (inactive) | > 100 µM (inactive) | > 100 µM (inactive) | > 100 µM (inactive) | > 100 µM (inactive) | – |
| COc1ccc(-c2nc(SCC(=O)N/N=C/c3ccc(O)c(OC)c3)[nH]c2-c2ccc(OC)cc2)cc1 | 33.3 µM (inactive) | 17.7 µM (inactive) | 24.6 µM (inactive) | 21.9 µM (inactive) | – | – | – | 37.8 µM (inactive) | 19.2 µM (inactive) | 31.8 µM (inactive) | 18.8 µM (inactive) | 40.9 µM (inactive) | 18.6 µM (inactive) | 54.6 µM (inactive) | 20.2 µM (inactive) | 17.7 µM (inactive) | 41.1 µM (inactive) | 22.7 µM (inactive) | 19.7 µM (inactive) | 23.7 µM (inactive) |
| C/C(=N/O)c1cccc(Nc2nc3ccc(Cl)cc3c3[nH]c4ccccc4c23)c1 | – | – | 2.77 µM (inactive) | 1.23 µM (inactive) | 2.65 µM (inactive) | 1.5 µM (inactive) | 0.242 µM (active) | – | 1.12 µM (active) | 1.92 µM (inactive) | 0.192 µM (active) | 1.9 µM (inactive) | 1.67 µM (inactive) | 1.53 µM (inactive) | 1.41 µM (inactive) | 1.18 µM (inactive) | 2.88 µM (inactive) | 1.58 µM (inactive) | 2.44 µM (inactive) | – |
| CC(=O)Nc1ccc(Nc2nc(=O)[nH]c(=O)[nH]2)cc1 | > 100 µM (inactive) | > 100 µM (inactive) | > 100 µM (inactive) | > 100 µM (inactive) | > 100 µM (inactive) | > 100 µM (inactive) | – | > 100 µM (inactive) | > 100 µM (inactive) | > 100 µM (inactive) | > 100 µM (inactive) | > 100 µM (inactive) | – | > 100 µM (inactive) | > 100 µM (inactive) | > 100 µM (inactive) | > 100 µM (inactive) | > 100 µM (inactive) | > 100 µM (inactive) | > 100 µM (inactive) |
| O=C1c2ccccc2-c2c1c(-c1cccc(Br)c1)nc1ccc3ccccc3c21 | > 100 µM (inactive) | > 100 µM (inactive) | > 100 µM (inactive) | > 100 µM (inactive) | 46.9 µM (inactive) | – | > 100 µM (inactive) | > 100 µM (inactive) | – | > 100 µM (inactive) | > 100 µM (inactive) | > 100 µM (inactive) | > 100 µM (inactive) | > 100 µM (inactive) | > 100 µM (inactive) | – | > 100 µM (inactive) | > 100 µM (inactive) | > 100 µM (inactive) | – |
| C=CCNC(=S)N/C=C(/C(C)=O)C(=O)Nc1ccccc1C | > 100 µM (inactive) | > 100 µM (inactive) | > 100 µM (inactive) | > 100 µM (inactive) | > 100 µM (inactive) | > 100 µM (inactive) | > 100 µM (inactive) | – | > 100 µM (inactive) | > 100 µM (inactive) | > 100 µM (inactive) | > 100 µM (inactive) | > 100 µM (inactive) | > 100 µM (inactive) | > 100 µM (inactive) | > 100 µM (inactive) | > 100 µM (inactive) | > 100 µM (inactive) | > 100 µM (inactive) | – |
| COc1ccc(-c2nc(-c3cc4c(ccc5ccccc54)oc3=O)cs2)cc1 | > 100 µM (inactive) | > 100 µM (inactive) | 73.3 µM (inactive) | > 100 µM (inactive) | > 100 µM (inactive) | > 100 µM (inactive) | > 100 µM (inactive) | – | – | – | – | 43.7 µM (inactive) | > 100 µM (inactive) | > 100 µM (inactive) | > 100 µM (inactive) | > 100 µM (inactive) | > 100 µM (inactive) | > 100 µM (inactive) | > 10 µM (inactive) | > 100 µM (inactive) |
| CSc1cc(Cl)c(C)cc1S(=O)(=O)NC(=O)NNc1cnc2ccccc2n1 | > 100 µM (inactive) | > 100 µM (inactive) | > 100 µM (inactive) | > 100 µM (inactive) | > 100 µM (inactive) | > 100 µM (inactive) | 17.5 µM (inactive) | > 100 µM (inactive) | > 100 µM (inactive) | > 100 µM (inactive) | > 100 µM (inactive) | > 100 µM (inactive) | > 100 µM (inactive) | > 100 µM (inactive) | > 100 µM (inactive) | > 100 µM (inactive) | > 100 µM (inactive) | > 100 µM (inactive) | > 100 µM (inactive) | – |
| C=C1CCCC2[C@](C)(CC3=C(Cl)C(=O)C=C(OC)C3=O)C(C)CC[C@]12C (stereo not given in full) | 2.02 µM (inactive) | 9.12 µM (inactive) | 6.55 µM (inactive) | 2.51 µM (inactive) | 8.71 µM (inactive) | 1.9 µM (inactive) | 0.745 µM (active) | 8.18 µM (inactive) | 1.16 µM (inactive) | 3.99 µM (inactive) | 5.93 µM (inactive) | 7.52 µM (inactive) | 5.42 µM (inactive) | 5.09 µM (inactive) | 7.41 µM (inactive) | 6.43 µM (inactive) | 7.21 µM (inactive) | – | 3.44 µM (inactive) | 6.12 µM (inactive) |
| C/C=C1\C(=O)OC2CCN3CCC(COC(=O)C(C)(O)C(C)C1O)C23 (stereo not given) | > 100 µM (inactive) | > 100 µM (inactive) | – | > 100 µM (inactive) | > 100 µM (inactive) | > 100 µM (inactive) | > 100 µM (inactive) | > 100 µM (inactive) | > 100 µM (inactive) | > 100 µM (inactive) | – | > 100 µM (inactive) | – | > 100 µM (inactive) | > 100 µM (inactive) | > 100 µM (inactive) | > 100 µM (inactive) | > 100 µM (inactive) | > 100 µM (inactive) | > 100 µM (inactive) |
| Cc1cc(C#N)c(Nc2c(C)cccc2[N+](=O)[O-])s1 | 27.3 µM (inactive) | 87.7 µM (inactive) | 25.4 µM (inactive) | – | – | – | 92 µM (inactive) | 40.2 µM (inactive) | 30.4 µM (inactive) | 25.4 µM (inactive) | 29.5 µM (inactive) | 57.4 µM (inactive) | 16.4 µM (inactive) | 28 µM (inactive) | 28.8 µM (inactive) | – | 68.2 µM (inactive) | 12.4 µM (inactive) | 35.7 µM (inactive) | 24.3 µM (inactive) |
